# How the values were obtained:
# [1] = tested on: recombinant virus NL4.3-delta-env-VSV-Luc (HIV VSV pseudotyped virus); type: cell-based, HIV-1
# [2] = tested on: raltegravir resistant HIV virus (mutation 148); assay: Antiviral activity against raltegravir resistant viruses; type: cell-based; settings: viruses resistant to raltegravir
# [3] = Vaginal tolerance in rabbits after repeated topical administration; type: in vivo; settings: rabbit, once daily 7 days, solution 90 and 397 mg/L
# Description: To determine the safety of hydroxytyrosol, a study of vaginal tolerance in rabbits after repeated once daily administration during 7 days was performed. Hydroxytyrosol was applied as a solution.
# HIV-integrase = HIV-integrase (Human immunodeficiency virus type 1 group M subtype B, UniProt P04585); settings: Huang et al. 2007; cited from earlier work
# [4] = tested on: X4-tropic virus (NL.4.3 Ren); assay: Antiviral activity in PBMC's, X4-tropic virus; type: cell-based, HIV-1; settings: PBMC's activated with PHA+IL-2; compared with MT-2
# Description: Similar assays were carried out using peripheral blood mononuclear cells (PBMC's) for healthy donors, prior activation with PHA+IL-2 during 48 hours and maintaining with IL-2 for at least another 48 hours. In this case the number of cells per well was 250.000. In addition, infection with HIV virus with R5-tropism (JR-Ren) was also included in the assays.
# MT-2 cells = assay: Viability assay on non-infected MT-2 cells; settings: 48 hour
structure (smiles),measurement,setting,value
"OCCc1ccc(O)c(O)c1 [Hydroxytyrosol, 4-(2-hydroxyethyl)-1,2-benzenediol]",inhibition of VSV pseudotyped viruses,[1],inhibits VSV pseudotyped viruses
same,activity against integrase resistant viruses,[2],lack of cross resistance
same,activity against integrase resistant viruses,[2]; listed as hydroxytyrosol,mantained its activity
same,mean irritation value (MIV),[3],0.00
same,morphological alterations in the vagina,[3],no morphological alterations
same,effect on in vitro HIV-integrase activity,HIV-integrase,dose-dependent inhibitory effect
same,IC50 value for infection with X4-tropic,[4],higher than in the assays with cell line MT-2
same,toxicity / cell viability,MT-2 cells,not due to toxicity
